From article PMC6848745 (Psychopharmacology, 2018)
Several values for one entry are separate records, joined by “and”; a condition that tells them apart may be missing. Equal values may be shown once.

Columns and labels:
[1] = target: α1B (Homo sapiens, UniProt P35368); assay: NIMH PDSP competitive binding, α1B; settings: [3H]prazosin; cloned receptor; mean ± SEM
[2] = tested on: C57BL/6J mice; assay: Head twitch response; assay type: in vivo, mouse; settings: for HTR Counts (Mean ± SEM): 30 min
[3] = target: D3 (Homo sapiens, UniProt P35462); assay: NIMH PDSP competitive binding, D3; settings: [3H]N-methylspiperone; cloned receptor; mean ± SEM
[4] = target: 5-HT1D (Homo sapiens, UniProt P28221); assay: NIMH PDSP competitive binding, 5-HT1D; settings: [3H]GR125743; cloned receptor; mean ± SEM
[5] = target: 5-HT6 (Homo sapiens, UniProt P50406); assay: NIMH PDSP competitive binding, 5-HT6; settings: [3H]LSD; cloned receptor; mean ± SEM
[6] = target: α2A (Homo sapiens, UniProt P08913); assay: NIMH PDSP competitive binding, α2A; settings: [3H]rauwolscine; cloned receptor; mean ± SEM
[7] = target: H1 (Homo sapiens, UniProt P35367); assay: NIMH PDSP competitive binding, H1
[8] = target: D4 (Homo sapiens, UniProt P21917); assay: NIMH PDSP competitive binding, D4; settings: [3H]N-methylspiperone; cloned receptor; mean ± SEM
[9] = target: 5-HT1B (Homo sapiens, UniProt P28222); assay: NIMH PDSP competitive binding, 5-HT1B; settings: [3H]GR125743; cloned receptor; mean ± SEM
[10] = target: H4 (Homo sapiens, UniProt Q9H3N8); assay: NIMH PDSP competitive binding, H4
[11] = target: 5-HT7 (Homo sapiens, UniProt P34969); assay: NIMH PDSP competitive binding, 5-HT7; settings: [3H]LSD; cloned receptor; mean ± SEM
[12] = target: β3 (Homo sapiens, UniProt P13945); assay: NIMH PDSP competitive binding, β3; settings: [3H]CGP12177; cloned receptor; mean ± SEM
[13] = target: α2B (Homo sapiens, UniProt P18089); assay: NIMH PDSP competitive binding, α2B; settings: [3H]rauwolscine; cloned receptor; mean ± SEM
[14] = target: T1, human 5-HT2C INI (Homo sapiens, UniProt P28335); assay: Gq-mediated calcium flux in HEK293 cells, h5-HT2C; assay type: cell-based
T1 sequence (P28335 33-458): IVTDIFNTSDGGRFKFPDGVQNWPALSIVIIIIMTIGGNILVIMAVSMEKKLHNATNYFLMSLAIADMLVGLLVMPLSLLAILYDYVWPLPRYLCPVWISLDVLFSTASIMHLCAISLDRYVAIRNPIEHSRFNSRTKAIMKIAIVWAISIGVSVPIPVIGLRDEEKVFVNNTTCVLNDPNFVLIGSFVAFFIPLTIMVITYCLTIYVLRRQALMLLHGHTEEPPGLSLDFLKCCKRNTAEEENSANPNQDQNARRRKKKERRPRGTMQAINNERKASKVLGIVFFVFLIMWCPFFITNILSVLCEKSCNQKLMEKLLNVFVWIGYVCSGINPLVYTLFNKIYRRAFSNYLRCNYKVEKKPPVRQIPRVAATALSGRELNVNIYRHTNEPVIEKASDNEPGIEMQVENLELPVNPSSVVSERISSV

[15] = target: D2 (Homo sapiens, UniProt P14416); assay: NIMH PDSP competitive binding, D2; settings: [3H]N-methylspiperone; cloned receptor; mean ± SEM
[16] = target: 5-HT1A (Homo sapiens, UniProt P08908); assay: NIMH PDSP competitive binding, 5-HT1A; settings: [3H]8-OH-DPAT; cloned receptor; mean ± SEM
[17] = target: H3 (Cavia porcellus, UniProt Q9JI35); assay: NIMH PDSP competitive binding, H3; settings: primary binding assay
[18] = target: 5-HT2C (Homo sapiens, UniProt P28335); assay: NIMH PDSP competitive binding, 5-HT2C
[19] = target: β2 (Homo sapiens, UniProt P07550); assay: NIMH PDSP competitive binding, β2
[20] = target: 5-HT5A (Homo sapiens, UniProt P47898); assay: NIMH PDSP competitive binding, 5-HT5A; settings: [3H]LSD; cloned receptor; mean ± SEM
[21] = target: T2, 5-HT2B (Homo sapiens, UniProt P41595); assay: NIMH PDSP competitive binding, 5-HT2B; settings: [3H]LSD; cloned receptor; mean ± SEM
[22] = target: β1 (Homo sapiens, UniProt P08588); assay: NIMH PDSP competitive binding, β1; settings: primary binding assay
[23] = target: H2 (Homo sapiens, UniProt P25021); assay: NIMH PDSP competitive binding, H2; settings: [3H]tiotidine; cloned receptor; mean ± SEM
[24] = target: α1D (Homo sapiens, UniProt P25100); assay: NIMH PDSP competitive binding, α1D; settings: [3H]prazosin; cloned receptor
[25] = target: α2C (Homo sapiens, UniProt P18825); assay: NIMH PDSP competitive binding, α2C; settings: [3H]rauwolscine; cloned receptor; mean ± SEM
[26] = target: D5 (Homo sapiens, UniProt P21918); assay: NIMH PDSP competitive binding, D5; settings: [3H]SCH23390; cloned receptor; mean ± SEM
[27] = target: α1A (Homo sapiens, UniProt P35348); assay: NIMH PDSP competitive binding, α1A; settings: [3H]prazosin; cloned receptor
[28] = target: D1 (Homo sapiens, UniProt P21728); assay: NIMH PDSP competitive binding, D1; settings: [3H]SCH23390; cloned receptor; mean ± SEM
[29] = target: T3, 5-HT2A (Homo sapiens, UniProt P28223); assay: Gq-mediated calcium flux in HEK293 cells, h5-HT2A; assay type: cell-based
[30] = target: T2, 5-HT2B; assay: Gq-mediated calcium flux in HEK293 cells, h5-HT2B; assay type: cell-based
[31] = target: T3, 5-HT2A; assay: NIMH PDSP competitive binding, 5-HT2A; settings: [3H]ketanserin; cloned receptor; mean ± SEM
[32] = tested on: 5-HT2A sites labeled with [3H]ketanserin; settings: rat frontal cortex / forebrain homogenate; ref Huang et al. 1994; cited from earlier work
[33] = tested on: rats trained to discriminate saline from LSD; settings: ref Huang et al. 1994; cited from earlier work
[34] = Ca2+ mobilization, HEK293 cells
[35] = percent 5-HT maximum response, mean ± SEM

T2 sequence (P41595 whole entry): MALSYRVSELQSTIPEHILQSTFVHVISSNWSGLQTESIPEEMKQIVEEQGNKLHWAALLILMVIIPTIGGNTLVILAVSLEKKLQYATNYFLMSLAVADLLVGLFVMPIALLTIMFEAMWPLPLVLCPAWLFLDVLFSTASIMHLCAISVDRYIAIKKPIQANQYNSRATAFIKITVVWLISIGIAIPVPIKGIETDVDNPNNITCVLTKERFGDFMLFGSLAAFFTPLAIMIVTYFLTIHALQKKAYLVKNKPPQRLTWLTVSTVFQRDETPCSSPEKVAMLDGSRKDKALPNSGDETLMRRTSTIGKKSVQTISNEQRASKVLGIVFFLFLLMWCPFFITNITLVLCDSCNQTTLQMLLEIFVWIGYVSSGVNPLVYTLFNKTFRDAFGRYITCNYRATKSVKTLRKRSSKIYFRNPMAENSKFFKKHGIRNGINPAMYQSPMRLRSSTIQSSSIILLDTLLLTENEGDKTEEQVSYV
T3 sequence (P28223 whole entry): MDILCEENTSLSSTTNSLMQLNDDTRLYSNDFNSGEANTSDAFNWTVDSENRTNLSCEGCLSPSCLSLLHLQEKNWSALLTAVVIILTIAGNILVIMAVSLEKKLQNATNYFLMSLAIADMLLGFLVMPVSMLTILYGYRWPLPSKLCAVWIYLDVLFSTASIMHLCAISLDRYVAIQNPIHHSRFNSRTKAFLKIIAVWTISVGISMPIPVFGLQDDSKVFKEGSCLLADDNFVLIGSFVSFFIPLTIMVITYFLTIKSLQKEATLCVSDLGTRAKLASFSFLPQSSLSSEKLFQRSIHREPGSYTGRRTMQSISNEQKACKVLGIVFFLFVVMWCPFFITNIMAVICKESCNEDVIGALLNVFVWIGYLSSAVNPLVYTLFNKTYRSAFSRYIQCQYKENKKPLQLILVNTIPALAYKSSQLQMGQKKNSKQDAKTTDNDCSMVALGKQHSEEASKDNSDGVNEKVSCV
Sequence of H1 (P35367 whole entry): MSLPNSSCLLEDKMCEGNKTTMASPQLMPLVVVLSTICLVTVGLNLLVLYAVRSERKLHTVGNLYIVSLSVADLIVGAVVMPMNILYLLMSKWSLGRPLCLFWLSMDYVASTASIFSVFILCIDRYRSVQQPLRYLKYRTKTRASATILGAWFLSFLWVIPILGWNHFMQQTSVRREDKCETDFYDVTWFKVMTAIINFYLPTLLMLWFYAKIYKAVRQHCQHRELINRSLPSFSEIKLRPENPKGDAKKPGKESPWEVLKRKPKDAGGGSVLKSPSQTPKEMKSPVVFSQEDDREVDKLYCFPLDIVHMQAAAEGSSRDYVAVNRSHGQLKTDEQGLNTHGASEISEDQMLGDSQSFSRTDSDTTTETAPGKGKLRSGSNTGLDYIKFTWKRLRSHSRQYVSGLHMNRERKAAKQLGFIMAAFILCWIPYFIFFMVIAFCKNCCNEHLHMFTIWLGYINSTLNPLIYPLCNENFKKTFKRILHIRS
Sequence of β2 (P07550 whole entry): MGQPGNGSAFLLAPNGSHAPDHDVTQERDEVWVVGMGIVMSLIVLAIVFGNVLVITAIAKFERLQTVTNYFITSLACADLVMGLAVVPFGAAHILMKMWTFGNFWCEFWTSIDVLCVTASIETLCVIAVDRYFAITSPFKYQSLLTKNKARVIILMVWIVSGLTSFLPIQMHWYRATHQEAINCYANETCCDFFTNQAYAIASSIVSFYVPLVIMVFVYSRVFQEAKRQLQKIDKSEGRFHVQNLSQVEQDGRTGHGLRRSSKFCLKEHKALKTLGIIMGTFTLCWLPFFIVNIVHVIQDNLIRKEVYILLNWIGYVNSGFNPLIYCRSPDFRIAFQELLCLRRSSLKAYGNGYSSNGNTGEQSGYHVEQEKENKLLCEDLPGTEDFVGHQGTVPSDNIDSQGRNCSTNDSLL
Sequence of H4 (Q9H3N8 whole entry): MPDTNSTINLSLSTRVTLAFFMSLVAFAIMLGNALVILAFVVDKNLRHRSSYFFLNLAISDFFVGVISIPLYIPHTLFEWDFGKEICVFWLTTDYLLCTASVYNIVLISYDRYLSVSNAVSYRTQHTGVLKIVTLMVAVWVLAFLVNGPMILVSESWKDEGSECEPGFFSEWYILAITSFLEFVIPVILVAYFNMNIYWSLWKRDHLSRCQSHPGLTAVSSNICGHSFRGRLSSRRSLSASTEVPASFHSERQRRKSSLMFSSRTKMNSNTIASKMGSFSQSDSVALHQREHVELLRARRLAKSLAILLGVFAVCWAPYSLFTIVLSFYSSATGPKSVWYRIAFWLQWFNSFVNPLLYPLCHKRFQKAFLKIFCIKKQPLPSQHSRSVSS
Sequence of α2B (P18089 whole entry): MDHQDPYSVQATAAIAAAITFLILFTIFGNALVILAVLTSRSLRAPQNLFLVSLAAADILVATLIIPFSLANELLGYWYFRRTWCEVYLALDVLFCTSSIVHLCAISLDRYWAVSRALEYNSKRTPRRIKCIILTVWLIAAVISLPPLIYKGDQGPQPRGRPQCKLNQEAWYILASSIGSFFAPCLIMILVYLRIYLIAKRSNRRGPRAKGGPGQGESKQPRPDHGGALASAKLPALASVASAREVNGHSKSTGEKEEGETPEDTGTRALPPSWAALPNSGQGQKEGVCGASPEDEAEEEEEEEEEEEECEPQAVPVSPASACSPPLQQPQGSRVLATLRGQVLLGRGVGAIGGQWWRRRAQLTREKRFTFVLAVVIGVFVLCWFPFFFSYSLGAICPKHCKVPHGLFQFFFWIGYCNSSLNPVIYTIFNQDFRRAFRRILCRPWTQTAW
Sequence of D1 (P21728 whole entry): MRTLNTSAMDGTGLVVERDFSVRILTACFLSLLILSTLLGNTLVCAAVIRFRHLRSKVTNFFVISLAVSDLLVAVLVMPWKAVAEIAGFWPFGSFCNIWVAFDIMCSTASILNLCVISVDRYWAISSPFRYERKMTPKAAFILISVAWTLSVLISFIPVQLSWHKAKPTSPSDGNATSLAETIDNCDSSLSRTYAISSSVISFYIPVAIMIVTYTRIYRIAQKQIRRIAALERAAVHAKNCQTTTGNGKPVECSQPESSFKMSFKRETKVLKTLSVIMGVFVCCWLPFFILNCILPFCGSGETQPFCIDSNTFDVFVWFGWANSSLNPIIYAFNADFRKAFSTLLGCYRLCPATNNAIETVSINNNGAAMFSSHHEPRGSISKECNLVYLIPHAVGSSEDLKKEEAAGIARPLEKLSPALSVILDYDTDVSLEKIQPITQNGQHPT
Sequence of 5-HT1B (P28222 whole entry): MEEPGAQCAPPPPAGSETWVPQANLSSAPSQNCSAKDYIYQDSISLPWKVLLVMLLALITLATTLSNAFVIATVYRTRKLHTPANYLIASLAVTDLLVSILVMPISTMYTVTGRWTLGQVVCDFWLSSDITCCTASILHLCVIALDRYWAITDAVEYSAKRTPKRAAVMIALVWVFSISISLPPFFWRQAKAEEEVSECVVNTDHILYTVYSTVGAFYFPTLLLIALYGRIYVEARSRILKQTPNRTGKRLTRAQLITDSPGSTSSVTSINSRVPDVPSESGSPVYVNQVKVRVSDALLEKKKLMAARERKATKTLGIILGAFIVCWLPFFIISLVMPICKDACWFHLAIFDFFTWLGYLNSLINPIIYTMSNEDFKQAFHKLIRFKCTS
Sequence of α2A (P08913 whole entry): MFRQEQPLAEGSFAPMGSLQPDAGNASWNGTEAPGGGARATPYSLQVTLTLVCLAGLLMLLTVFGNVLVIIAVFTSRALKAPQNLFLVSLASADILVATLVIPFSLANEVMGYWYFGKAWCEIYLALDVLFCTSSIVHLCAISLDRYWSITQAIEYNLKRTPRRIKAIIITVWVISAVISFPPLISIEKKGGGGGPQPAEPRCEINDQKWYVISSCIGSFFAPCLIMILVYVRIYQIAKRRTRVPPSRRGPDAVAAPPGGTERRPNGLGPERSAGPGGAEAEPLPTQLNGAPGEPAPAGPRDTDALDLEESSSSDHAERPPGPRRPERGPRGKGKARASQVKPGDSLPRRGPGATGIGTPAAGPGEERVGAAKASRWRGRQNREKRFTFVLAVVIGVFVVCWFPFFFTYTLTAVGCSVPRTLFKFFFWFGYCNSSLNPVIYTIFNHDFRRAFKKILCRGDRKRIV
Sequence of β1 (P08588 whole entry): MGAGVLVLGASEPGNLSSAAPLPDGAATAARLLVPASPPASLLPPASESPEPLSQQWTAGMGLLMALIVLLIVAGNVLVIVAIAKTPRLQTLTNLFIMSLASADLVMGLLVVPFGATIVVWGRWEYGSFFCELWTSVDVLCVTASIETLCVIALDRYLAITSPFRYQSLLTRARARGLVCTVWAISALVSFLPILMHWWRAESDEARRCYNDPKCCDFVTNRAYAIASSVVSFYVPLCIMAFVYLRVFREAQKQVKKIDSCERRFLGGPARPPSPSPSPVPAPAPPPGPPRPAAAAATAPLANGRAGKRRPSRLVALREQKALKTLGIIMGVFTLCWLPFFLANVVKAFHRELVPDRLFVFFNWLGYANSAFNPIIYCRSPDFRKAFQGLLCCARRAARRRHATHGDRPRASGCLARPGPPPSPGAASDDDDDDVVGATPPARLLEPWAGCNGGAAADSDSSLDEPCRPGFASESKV
Sequence of 5-HT6 (P50406 whole entry): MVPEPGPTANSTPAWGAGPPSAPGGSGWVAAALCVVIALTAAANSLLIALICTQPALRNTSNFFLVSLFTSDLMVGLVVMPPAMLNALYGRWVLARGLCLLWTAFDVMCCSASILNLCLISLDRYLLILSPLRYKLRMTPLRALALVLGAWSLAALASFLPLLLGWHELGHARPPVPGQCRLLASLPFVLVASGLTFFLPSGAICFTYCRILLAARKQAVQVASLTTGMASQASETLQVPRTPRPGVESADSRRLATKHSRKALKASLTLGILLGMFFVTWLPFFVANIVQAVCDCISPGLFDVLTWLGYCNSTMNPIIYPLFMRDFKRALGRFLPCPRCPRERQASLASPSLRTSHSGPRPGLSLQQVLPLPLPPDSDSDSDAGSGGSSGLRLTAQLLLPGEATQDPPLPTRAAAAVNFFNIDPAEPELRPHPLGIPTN

## CCN(C(=O)[C@@H]1C=C2c3cccc4[nH]cc(c34)C[C@H]2N(C)C1)C1CC1 [ECPLA, N-ethyl-N-cyclopropyl lysergamide]
[1]
  Ki: 1950 ± 152 nM
[2]; 0.1 mg/kg IP
  HTR Counts (Mean ± SEM): 17.7 ± 2.6
[2]; 0.3 mg/kg IP
  HTR Counts (Mean ± SEM): 34.6 ± 5.1
[2]; 1 mg/kg IP
  HTR Counts (Mean ± SEM): 28.2 ± 2.6
[2]; IP, entire 30-min test session
  ED50, nmol/kg (95% CI): 317.2 (213.2–471.9) nmol/kg
  ED50, μg/kg (95% CI): 130.2 (87.5–193.7) μg/kg
[2]; biphasic inverted-U-shaped dose-response, IP
  dose of peak HTR response: 0.3 mg/kg
[3]
  Ki: 104 ± 29 nM
[4]
  Ki: 12.6 ± 1.9 nM
[5]
  Ki: 21.7 ± 4.4 nM
[6]
  Ki: 144 ± 64 nM
[7]; [3H]pyrilamine, cloned receptor, IC50 > 10 μM in the primary binding assay
  Ki: > 10000 nM
[7]; primary binding assay, 10 μM
  displacement at 10 μM: < 50%
[8]
  Ki: 92.3 ± 11.9 nM
[9]
  Ki: 42.3 ± 8.7 nM
[10]; [3H]histamine, cloned receptor, IC50 > 10 μM in the primary binding assay
  Ki: > 10000 nM
[10]; primary binding assay, 10 μM
  displacement at 10 μM: < 50%
[11]
  Ki: 27.3 ± 11.5 nM
[12]
  Ki: 2420 ± 639 nM
[13]
  Ki: 62.3 ± 15.1 nM
[14]; [34]
  EC50: 183 nM
  pEC50 ± SEM: 6.74 ± 0.09
[14]; [35]
  Emax % 5-HT: 73 % 5-HT and 73 ± 3 % 5-HT
[15]
  Ki: 150 ± 32 nM
[16]
  Ki: 3.2 ± 0.5 nM
[17]
  displacement at 10 μM: < 50%
[18]; ECPLA Ki 85.7 nM vs LSD Ki 30 nM
  fold lower affinity than LSD for the 5-HT2C receptor: ~3 fold
[18]; [3H]mesulergine, cloned receptor, mean ± SEM
  Ki: 85.7 ± 31.2 nM
[19]; [3H]CGP12177, cloned receptor, IC50 > 10 μM in the primary binding assay
  Ki: > 10000 nM
[19]; primary binding assay, 10 μM
  displacement at 10 μM: < 50%
[20]
  Ki: 8.6 ± 4.2 nM
[21]
  Ki: 5.3 ± 1.3 nM
[22]
  displacement at 10 μM: < 50%
[23]
  Ki: 890 ± 137 nM
[24]
  Ki: > 10000 nM
[25]
  Ki: 438 ± 118 nM
[26]
  Ki: 1500 ± 386 nM
[27]
  Ki: > 10000 nM
[28]
  Ki: 502 ± 122 nM
[29]; [34]
  EC50: 14.6 nM
  pEC50 ± SEM: 7.84 ± 0.04
[29]; [35]
  Emax % 5-HT: 91 % 5-HT and 91 ± 1 % 5-HT
[30]; [34]
  EC50: 36.7 nM
  pEC50 ± SEM: 7.44 ± 0.06
[30]; [35]
  Emax % 5-HT: 73 % 5-HT and 73 ± 2 % 5-HT
[31]
  Ki: 16.5 ± 6 nM

## CCN(C(=O)[C@@H]1C=C2c3cccc4[nH]cc(c34)C[C@H]2N(C)C1)C(C)C [EIPLA, N-ethyl-N-isopropyl lysergamide]
[32]
  fold lower affinity than LSD at [3H]ketanserin-labeled 5-HT2A sites: three-fold
[33]
  fold lower potency than LSD in the rat drug discrimination paradigm: ~3 fold
